According to PMC9456261 (International Journal of Molecular Sciences, 2022):

Tests used:
[1] = system: Vero E6 cells; assay: Cytotoxicity, MTT assay
[2] = in vitro; settings: African green monkey
[3] = system: SARS-CoV-2; assay: Time-of-drug-addition assay (qRT-PCR of viral RNA in supernatant); assay type: cell-based; settings: 25 µM, Vero E6, MOI 0.01, qRT-PCR 18 h post-infection
Description: To explore which steps of the SARS-CoV-2 replication cycle were interrupted by the test compounds, we performed a time-of-drug-addition assay for compounds 874 and 876, which were selected as representatives with different substituents at positions N1 and N3. Cells were treated with 25 µm of these compounds at various stages of infection (entry, full time and post-entry) which was followed by qRT-PCR assays.
The assays were performed as described previously. Briefly, Vero E6 cells were seeded into 96-well plates and treated with 874 or 876 (25 µM) at different stages of virus infection (full-time, entry and post-entry). The cells were infected with SARS-CoV-2 (MOI = 0.01) and then incubated for 1 h. The viral inoculum was then removed, and the cells were washed twice with PBS. At 18 h post-infection, the cell culture supernatant of each time point experiment was collected for viral yield measurements using qRT–PCR, as described in [31, 33].
Figure 3 Time-of-drug-addition Assay. Vero E6 cells were treated with the compounds at different time points of the viral replication cycle as described in the Materials and Methods chapter. For all experimental groups, cells were infected with SARS-CoV-2 at an MOI of 0.01. Viral RNA copies in the supernatant were quantified by qRT-PCR at 18 h post-infection. All results are shown as mean ± SEM (n = 3). One-way ANOVA with Tukey’s post hoc test: ** p < 0.01, *** p < 0.001 and **** p < 0.0001.

[4] = target: SARS-CoV-2 RdRp (NSP12, NSP7 and NSP8) (Severe acute respiratory syndrome coronavirus 2, UniProt P0DTD1); assay: Inhibition of SARS-CoV-2 RNA-dependent RNA polymerase activity (Profoldin kit); assay type: biochemical
Description: SARS-CoV-2 RdRp activity was inhibited by 876 at 100 µM and 50 µM, by 100% and 60%, respectively (Figure 6).
The activity of SARS-CoV-2 RdRp was assessed using the SARS-CoV-2 RNA-dependent RNA polymerase kit plus (Profoldin #S2RPA100KE), according to the manufacture instructions. In brief, reactions were carried out at 35 °C for 2 h in the presence or absence (control) of the test compound. Then, fluorescent dye was added, and fluorescence was determined using a Qubit fluorimeter (Thermo Fisher, MA, USA). The inhibition of RdRp activity was calculated from the values obtained for control samples.
Figure 6 Uracil Derivative 876 Inhibit the Transcriptional Activity of SARS-CoV-2 RNA-dependent RNA polymerase. Transcriptional inhibition plot of the SARS-CoV-2 replication complex treated with 876 or PBS (control) (n = 3). Results are representative mean ± SEM. One-way ANOVA with Tukey’s post hoc test: *** p < 0.001 and **** p < 0.0001.

Molecule	melting point	CC50 [2]	other results
4-[5-[3-[5-(2-Bromophenoxy)pentyl]-2,6-dioxo-5-methyl-3,6-dihydropyrimidin-1(^2H)-yl]pentyloxy]benzoic acid [Compound 872]			CC50 ([1]; 72 h): > 50 µM
O=C(O)c1ccc(OCCCCn2c(=O)ccn(Cc3cccc4ccccc34)c2=O)cc1 [Compound 601, 4-[4-[2,6-Dioxo-3-(naphthyl-1-methyl)-3,6-dihydropyrimidin-1(^2H)-yl]butoxy]benzoic acid]	183 to 184.5 °C	> 50 µM	
O=c1ccn(Cc2c3ccccc3cc3ccccc23)c(=O)n1CCCCCCOc1ccc(Br)cc1 [Compound 611, 1-(Anthracen-9-ylmethyl)-3-[6-(4-bromophenoxy)hexyl]uracil]		> 50 µM	
O=C(O)c1ccc(OCCCCCn2c(=O)ccn(CCCCCOc3ccc(F)cc3)c2=O)cc1 [Compound 870, 4-[5-[3-[5-(4-Fluorophenoxy)pentyl]-2,6-dioxo-3,6-dihydropyrimidin-1(^2H)-yl]pentyloxy]benzoic acid]	133 to 135 °C	> 50 µM	
O=C(O)c1ccc(OCCCCCn2c(=O)ccn(CCCCCOc3ccccc3Br)c2=O)cc1 [Compound 871, 4-[5-[3-[5-(2-Bromophenoxy)pentyl]-2,6-dioxo-3,6-dihydropyrimidin-1(^2H)-yl]pentyloxy]benzoic acid]		> 25 µM	Effect on cell proliferation / cell death [1]: reduced cell proliferation without significant cell death
O=C(O)c1ccc(OCCCCn2c(=O)ccn(CCCOc3ccc(Br)cc3)c2=O)cc1 [Compound 873, 4-[4-[3-[3-(4-Bromophenoxy)propyl]-2,6-dioxo-3,6-dihydropyrimidin-1(^2H)-yl]butoxy]benzoic acid]	122 to 124 °C	> 50 µM	
Cc1cc(C)cc(OCCCCCn2ccc(=O)n(CCCCCOc3ccc(C(=O)O)cc3)c2=O)c1 [Compound 874, 4-[5-[3-[5-(3,5-Dimethylphenoxy)pentyl]-2,6-dioxo-3,6-dihydropyrimidin-1(^2H)-yl]pentyloxy]benzoic acid]		> 25 µM	Effect on cell proliferation / cell death [1]: reduced cell proliferation without significant cell death; Production of viral RNA, compound added at entry step [3]: did not inhibit the production of viral RNA; Virus replication (viral load in supernatant), compound added full time [3]: inhibited virus replication
O=C(O)c1ccc(Cn2c(=O)ccn(CCCCCOc3ccc(Br)cc3)c2=O)cc1 [Compound 875]		> 50 µM	
O=C(O)c1ccc(OCCCCCn2c(=O)ccn(Cc3c4ccccc4cc4ccccc34)c2=O)cc1 [Compound 876]	173 to 176 °C	> 50 µM	inhibition at 50 µM ([4]; 50 µM): 60%; inhibition at 100 µM ([4]; 100 µM): 100%; Production of viral RNA, compound added at entry step [3]: did not inhibit the production of viral RNA; Virus replication (viral load in supernatant), compound added full time [3]: inhibited virus replication; Viral load, compound added post-entry ([3]; post-entry): reduced the viral load
O=C(O)c1ccc(OCCCCn2c(=O)ccn(Cc3ccc4ccccc4c3)c2=O)cc1 [Compound 1005, 4-[4-[2,6-Dioxo-3-(naphthyl-2-methyl)-3,6-dihydropyrimidin-1(^2H)-yl]butoxy]benzoic acid]	143.5 to 145 °C	> 50 µM	
O=C(O)c1ccc(OCCCCn2c(=O)ccn(Cc3ccc(Br)c4ccccc34)c2=O)cc1 [Compound 1006, 4-[4-[3-(4-Bromonaphthyl-1-methyl)-2,6-dioxo-3,6-dihydropyrimidin-1(2H)-yl]butoxy]benzoic acid]	195.5 to 197.5 °C	> 50 µM	
O=C(O)c1ccc(OCCCn2c(=O)ccn(CCCCCCCCCCCCOc3ccc(Br)cc3)c2=O)cc1 [Compound 1007, 4-[3-[3-[12-(4-Bromophenoxy)dodecyl]-2,6-dioxo-3,6-dihydropyrimidin-1(^2H)-yl]propoxy]benzoic acid]		> 25 µM	Effect on cell proliferation / cell death [1]: reduced cell proliferation without significant cell death
